Measured values from patent publication US10168342B2, “Lipid probes and uses thereof” (THE SCRIPPS RESEARCH INSTITUTE, priority 2015, dated 2019).
Like-named read-outs stand apart in the source and are kept apart here.

Assays:
[1] = target: T1, AEA-DA lipid probe targets in Neuro2a cells (Mus musculus, UniProt P21995)
T1 sequence (P21995 34-330): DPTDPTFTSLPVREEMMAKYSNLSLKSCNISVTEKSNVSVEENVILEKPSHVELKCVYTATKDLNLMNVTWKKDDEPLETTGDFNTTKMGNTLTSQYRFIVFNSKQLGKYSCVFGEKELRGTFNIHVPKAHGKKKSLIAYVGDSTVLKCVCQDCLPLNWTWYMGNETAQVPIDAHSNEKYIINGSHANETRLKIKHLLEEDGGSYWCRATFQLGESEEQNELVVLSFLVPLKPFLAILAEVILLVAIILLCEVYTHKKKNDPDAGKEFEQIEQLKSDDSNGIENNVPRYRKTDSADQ

[2] = target: T2, AEA-DA lipid probe targets in Neuro2a cells (Mus musculus, UniProt P62492)
T2 sequence (P62492 1-216): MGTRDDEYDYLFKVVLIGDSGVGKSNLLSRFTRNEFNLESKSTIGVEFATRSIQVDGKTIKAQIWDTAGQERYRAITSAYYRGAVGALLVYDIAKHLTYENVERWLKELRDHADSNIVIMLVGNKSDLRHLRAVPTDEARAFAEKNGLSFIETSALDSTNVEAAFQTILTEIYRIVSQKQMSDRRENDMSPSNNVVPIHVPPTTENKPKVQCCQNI

[3] = target: T3, AEA-DA lipid probe targets in Neuro2a cells (Mus musculus, UniProt Q9CQM2)
T3 sequence (Q9CQM2 1-212): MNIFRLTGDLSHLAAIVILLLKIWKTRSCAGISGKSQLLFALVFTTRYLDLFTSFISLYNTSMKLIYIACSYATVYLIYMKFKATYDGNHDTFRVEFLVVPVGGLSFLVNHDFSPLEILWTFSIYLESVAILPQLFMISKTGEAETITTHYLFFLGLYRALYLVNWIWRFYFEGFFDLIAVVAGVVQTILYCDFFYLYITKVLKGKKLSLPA

[4] = target: AEA-DA lipid probe targets in Neuro2a cells (Mus musculus, UniProt Q9QUJ7)
[5] = target: AEA-DA lipid probe targets in Neuro2a cells (Mus musculus, UniProt Q9Z2I0)
[6] = target: T4, AEA-DA lipid probe targets in Neuro2a cells (Mus musculus, UniProt Q9CZS1)
T4 sequence (Q9CZS1 20-519): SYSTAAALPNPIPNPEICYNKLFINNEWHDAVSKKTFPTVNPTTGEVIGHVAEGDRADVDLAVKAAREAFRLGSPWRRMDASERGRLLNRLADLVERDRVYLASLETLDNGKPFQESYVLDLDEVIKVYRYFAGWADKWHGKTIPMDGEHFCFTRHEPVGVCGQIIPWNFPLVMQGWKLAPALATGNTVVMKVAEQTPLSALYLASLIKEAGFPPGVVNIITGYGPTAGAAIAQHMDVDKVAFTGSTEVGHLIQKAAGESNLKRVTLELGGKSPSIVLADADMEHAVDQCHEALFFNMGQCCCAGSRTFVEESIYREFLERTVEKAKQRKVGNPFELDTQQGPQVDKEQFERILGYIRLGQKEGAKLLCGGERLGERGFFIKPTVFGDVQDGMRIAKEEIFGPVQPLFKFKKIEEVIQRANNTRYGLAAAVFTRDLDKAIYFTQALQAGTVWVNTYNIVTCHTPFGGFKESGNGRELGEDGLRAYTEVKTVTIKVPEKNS

[7] = target: T5, AEA-DA lipid probe targets in Neuro2a cells (Mus musculus, UniProt P43883)
T5 sequence (P43883 1-425): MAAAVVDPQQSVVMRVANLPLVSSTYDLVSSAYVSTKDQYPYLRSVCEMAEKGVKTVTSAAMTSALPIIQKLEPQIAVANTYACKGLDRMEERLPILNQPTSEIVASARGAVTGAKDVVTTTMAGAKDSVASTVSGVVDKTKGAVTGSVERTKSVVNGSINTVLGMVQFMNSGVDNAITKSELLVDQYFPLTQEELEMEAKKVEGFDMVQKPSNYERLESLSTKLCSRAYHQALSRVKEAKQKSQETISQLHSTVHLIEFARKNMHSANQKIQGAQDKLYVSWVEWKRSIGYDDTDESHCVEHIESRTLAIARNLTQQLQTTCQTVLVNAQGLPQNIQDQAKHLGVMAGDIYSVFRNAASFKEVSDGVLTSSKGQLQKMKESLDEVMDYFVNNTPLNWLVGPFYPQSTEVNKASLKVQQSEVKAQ

[8] = target: T6, AEA-DA lipid probe targets in Neuro2a cells (Mus musculus, UniProt O35887)
T6 sequence (O35887 20-315): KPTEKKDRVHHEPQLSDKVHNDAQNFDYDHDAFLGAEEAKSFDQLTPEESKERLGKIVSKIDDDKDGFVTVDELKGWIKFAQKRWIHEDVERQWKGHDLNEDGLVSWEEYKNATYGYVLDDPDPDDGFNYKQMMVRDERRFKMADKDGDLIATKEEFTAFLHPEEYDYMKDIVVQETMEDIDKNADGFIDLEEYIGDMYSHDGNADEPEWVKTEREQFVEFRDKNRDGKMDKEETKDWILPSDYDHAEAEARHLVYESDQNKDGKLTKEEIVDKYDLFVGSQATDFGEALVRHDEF

[9] = target: AEA-DA lipid probe targets in Neuro2a cells (Mus musculus, UniProt Q8VDL4)
[10] = target: T7, AEA-DA lipid probe targets in Neuro2a cells (Mus musculus, UniProt D3YZZ5)
T7 sequence (D3YZZ5 35-224): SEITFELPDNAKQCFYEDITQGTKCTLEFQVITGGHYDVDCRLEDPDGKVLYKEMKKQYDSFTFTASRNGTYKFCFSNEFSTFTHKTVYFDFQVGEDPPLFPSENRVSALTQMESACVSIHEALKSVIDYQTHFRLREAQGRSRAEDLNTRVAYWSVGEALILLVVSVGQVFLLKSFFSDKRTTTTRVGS

[11] = target: AEA-DA lipid probe targets in Neuro2a cells (Mus musculus, UniProt P09055)
Chain of AEA-DA lipid probe targets in Neuro2a cells (Mus musculus, UniProt P09055) (P09055 21-798): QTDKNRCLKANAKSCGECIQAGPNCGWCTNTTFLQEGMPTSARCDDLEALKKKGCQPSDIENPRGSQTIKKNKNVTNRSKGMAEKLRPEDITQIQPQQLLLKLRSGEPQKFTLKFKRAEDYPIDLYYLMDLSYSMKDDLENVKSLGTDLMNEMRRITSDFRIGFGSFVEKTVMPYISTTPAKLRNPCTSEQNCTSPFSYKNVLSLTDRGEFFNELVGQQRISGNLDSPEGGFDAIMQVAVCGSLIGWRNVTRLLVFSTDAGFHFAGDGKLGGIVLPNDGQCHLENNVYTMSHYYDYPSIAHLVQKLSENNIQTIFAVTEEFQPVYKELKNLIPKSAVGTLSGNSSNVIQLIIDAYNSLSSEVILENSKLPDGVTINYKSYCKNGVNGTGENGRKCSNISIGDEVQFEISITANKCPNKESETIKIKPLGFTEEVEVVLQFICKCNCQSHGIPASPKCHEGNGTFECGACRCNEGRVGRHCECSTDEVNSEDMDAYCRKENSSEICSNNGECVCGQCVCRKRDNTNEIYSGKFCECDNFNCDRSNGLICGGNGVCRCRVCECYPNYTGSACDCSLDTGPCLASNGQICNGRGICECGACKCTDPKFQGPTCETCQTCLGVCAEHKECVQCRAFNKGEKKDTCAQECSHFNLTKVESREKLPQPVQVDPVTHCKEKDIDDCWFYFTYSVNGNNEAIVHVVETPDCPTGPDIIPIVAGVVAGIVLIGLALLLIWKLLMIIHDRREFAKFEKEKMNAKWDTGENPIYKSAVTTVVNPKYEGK

Chain of AEA-DA lipid probe targets in Neuro2a cells (Mus musculus, UniProt Q8VDL4) (Q8VDL4 23-496): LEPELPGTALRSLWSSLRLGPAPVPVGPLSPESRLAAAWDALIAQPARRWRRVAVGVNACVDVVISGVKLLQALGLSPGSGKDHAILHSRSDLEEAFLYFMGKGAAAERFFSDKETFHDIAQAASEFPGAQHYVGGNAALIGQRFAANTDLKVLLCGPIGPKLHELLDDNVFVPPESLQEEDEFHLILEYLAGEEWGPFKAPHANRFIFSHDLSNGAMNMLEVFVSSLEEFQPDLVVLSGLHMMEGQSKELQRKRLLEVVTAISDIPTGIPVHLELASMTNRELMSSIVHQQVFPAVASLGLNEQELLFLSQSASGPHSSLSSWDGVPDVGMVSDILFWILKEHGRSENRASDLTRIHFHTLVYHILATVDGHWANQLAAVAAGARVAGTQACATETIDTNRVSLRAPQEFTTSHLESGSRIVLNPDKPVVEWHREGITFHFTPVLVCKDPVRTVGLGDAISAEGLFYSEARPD
Chain of AEA-DA lipid probe targets in Neuro2a cells (Mus musculus, UniProt Q9Z2I0) (Q9Z2I0 115-738): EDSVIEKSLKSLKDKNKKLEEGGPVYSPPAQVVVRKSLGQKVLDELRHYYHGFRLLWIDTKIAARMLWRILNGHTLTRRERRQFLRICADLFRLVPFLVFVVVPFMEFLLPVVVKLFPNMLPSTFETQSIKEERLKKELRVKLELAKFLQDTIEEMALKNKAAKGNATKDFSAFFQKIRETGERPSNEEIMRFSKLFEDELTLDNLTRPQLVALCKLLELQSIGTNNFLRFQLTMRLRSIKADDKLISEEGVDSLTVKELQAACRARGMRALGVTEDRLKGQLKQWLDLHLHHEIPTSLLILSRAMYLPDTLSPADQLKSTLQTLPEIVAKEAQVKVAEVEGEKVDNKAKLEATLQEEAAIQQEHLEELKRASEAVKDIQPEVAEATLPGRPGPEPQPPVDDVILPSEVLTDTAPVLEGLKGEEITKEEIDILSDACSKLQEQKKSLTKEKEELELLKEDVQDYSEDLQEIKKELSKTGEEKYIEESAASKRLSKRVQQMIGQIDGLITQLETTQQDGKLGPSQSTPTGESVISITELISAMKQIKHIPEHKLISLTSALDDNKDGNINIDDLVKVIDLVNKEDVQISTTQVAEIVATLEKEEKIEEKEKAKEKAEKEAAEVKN
Chain of AEA-DA lipid probe targets in Neuro2a cells (Mus musculus, UniProt Q9QUJ7) (Q9QUJ7 whole entry): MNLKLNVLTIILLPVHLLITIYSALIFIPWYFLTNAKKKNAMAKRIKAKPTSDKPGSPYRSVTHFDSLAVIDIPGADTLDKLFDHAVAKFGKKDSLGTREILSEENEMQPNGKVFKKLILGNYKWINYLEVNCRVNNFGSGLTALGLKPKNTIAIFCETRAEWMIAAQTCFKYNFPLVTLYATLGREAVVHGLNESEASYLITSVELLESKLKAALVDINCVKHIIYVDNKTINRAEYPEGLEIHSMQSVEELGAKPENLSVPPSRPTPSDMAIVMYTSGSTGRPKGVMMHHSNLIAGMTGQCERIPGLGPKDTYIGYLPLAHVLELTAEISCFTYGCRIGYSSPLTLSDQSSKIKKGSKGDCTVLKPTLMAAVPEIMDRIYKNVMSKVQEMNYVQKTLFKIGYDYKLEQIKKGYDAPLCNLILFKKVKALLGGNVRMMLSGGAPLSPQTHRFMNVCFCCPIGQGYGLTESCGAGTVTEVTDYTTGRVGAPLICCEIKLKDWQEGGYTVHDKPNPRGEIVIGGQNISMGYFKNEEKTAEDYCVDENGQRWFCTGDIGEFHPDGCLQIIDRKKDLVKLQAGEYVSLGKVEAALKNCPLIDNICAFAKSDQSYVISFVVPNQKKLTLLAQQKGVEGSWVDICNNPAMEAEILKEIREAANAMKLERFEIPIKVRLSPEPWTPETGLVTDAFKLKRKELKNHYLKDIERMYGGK

O=C(/C=C/c1cccnc1)NCCCCC1CCN(C(=O)c2ccccc2)CC1 [FK-866, reference compound]
SILAC ratio, Emb ([1]; competitor 25 μM): 1.3 | SILAC ratio, Rab11a ([2]; competitor 25 μM): 1.2 | SILAC ratio, Kdelr2 ([3]; competitor 25 μM): 1.2 | SILAC ratio Acsl4 ([4]; competitor 25 μM): 1.3 | SILAC ratio Letm1 ([5]; competitor 25 μM): 1.5 | SILAC ratio, Aldh1b1 ([6]; competitor 25 μM): 1.3 | SILAC ratio, Plin2 ([7]; competitor 25 μM): 1.0 | SILAC ratio, Calu ([8]; competitor 25 μM): 1.0 | SILAC ratio, Adpgk ([9]; competitor 25 μM): 1.2 | SILAC ratio, Tmed7 ([10]; competitor 25 μM): 1.1

CCCCC/C=C\C/C=C\C/C=C\C/C=C\CCCC(=O)NCCO [AEA, anandamide, reference compound]
SILAC ratio, Emb ([1]; competitor 200 μM): 1.8 | SILAC ratio, Rab11a ([2]; competitor 200 μM): 1.6 | SILAC ratio Itgb1 ([11]; competitor 200 μM): 1.5 | SILAC ratio, Kdelr2 ([3]; competitor 200 μM): 1.4 | SILAC ratio Acsl4 ([4]; competitor 200 μM): 1.6 | SILAC ratio Letm1 ([5]; competitor 200 μM): 0.6 | SILAC ratio, Aldh1b1 ([6]; competitor 200 μM): 2.7 | SILAC ratio, Plin2 ([7]; competitor 200 μM): 1.4 | SILAC ratio, Calu ([8]; competitor 200 μM): 1.0 | SILAC ratio, Adpgk ([9]; competitor 200 μM): 1.8 | SILAC ratio, Tmed7 ([10]; competitor 200 μM): 1.5

CN1CCN(C(=O)c2c(-c3ccccc3)c3cc([N+](=O)[O-])ccc3n2C)CC1 [KML110, (1-Methyl-5-nitro-3-phenyl-1H-indol-2-yl)(4-methylpiperazin-1-yl)methanone]
SILAC ratio, Emb ([1]; competitor 25 μM): 1.8 | SILAC ratio, Rab11a ([2]; competitor 25 μM): 1.6 | SILAC ratio Itgb1 ([11]; competitor 25 μM): 1.0 | SILAC ratio, Kdelr2 ([3]; competitor 25 μM): 1.3 | SILAC ratio Acsl4 ([4]; competitor 25 μM): 1.3 | SILAC ratio Letm1 ([5]; competitor 25 μM): 1.1 | SILAC ratio, Aldh1b1 ([6]; competitor 25 μM): 1.7 | SILAC ratio, Plin2 ([7]; competitor 25 μM): 2.7 | SILAC ratio, Calu ([8]; competitor 25 μM): 1.1 | SILAC ratio, Adpgk ([9]; competitor 25 μM): 1.5 | SILAC ratio, Tmed7 ([10]; competitor 25 μM): 1.6

C=CCN(C)CCCCCCOc1ccc(C(=O)c2ccc(Br)cc2)c(F)c1 [Ro 48-8071, reference compound]
SILAC ratio, Emb ([1]; competitor 25 μM): 1.1 | SILAC ratio, Rab11a ([2]; competitor 25 μM): 1.3 | SILAC ratio, Kdelr2 ([3]; competitor 25 μM): 0.9 | SILAC ratio Acsl4 ([4]; competitor 25 μM): 1.1 | SILAC ratio Letm1 ([5]; competitor 25 μM): 1.3 | SILAC ratio, Aldh1b1 ([6]; competitor 25 μM): 1.6 | SILAC ratio, Plin2 ([7]; competitor 25 μM): 1.8 | SILAC ratio, Calu ([8]; competitor 25 μM): 0.9 | SILAC ratio, Adpgk ([9]; competitor 25 μM): 1.2 | SILAC ratio, Tmed7 ([10]; competitor 25 μM): 1.1

CN1CCN(C(=O)c2[nH]c3ccc([N+](=O)[O-])cc3c2-c2ccccc2)CC1 [MJN228, (4-Methylpiperazin-1-yl)(5-nitro-3-phenyl-1H-indol-2-yl)methanone]
SILAC ratio, Emb ([1]; competitor 10 μM): 1.3 | SILAC ratio, Emb ([1]; competitor 25 μM): 1.7 | SILAC ratio, Emb ([1]; competitor 50 μM): 1.4 | SILAC ratio, Emb ([1]; competitor 100 μM): 2.2 | SILAC ratio, Rab11a ([2]; competitor 10 μM): 1.2 | SILAC ratio, Rab11a ([2]; competitor 25 μM): 1.6 | SILAC ratio, Rab11a ([2]; competitor 50 μM): 1.9 | SILAC ratio, Rab11a ([2]; competitor 100 μM): 2.4 | SILAC ratio Itgb1 ([11]; competitor 10 μM): 1.2 | SILAC ratio Itgb1 ([11]; competitor 25 μM): 1.3 | SILAC ratio Itgb1 ([11]; competitor 50 μM): 1.1 | SILAC ratio Itgb1 ([11]; competitor 100 μM): 1.1 | SILAC ratio, Kdelr2 ([3]; competitor 10 μM): 1.2 | SILAC ratio, Kdelr2 ([3]; competitor 25 μM): 1.2 | SILAC ratio, Kdelr2 ([3]; competitor 50 μM): 1.3 | SILAC ratio, Kdelr2 ([3]; competitor 100 μM): 1.8 | SILAC ratio Acsl4 ([4]; competitor 10 μM): 1.2 | SILAC ratio Acsl4 ([4]; competitor 25 μM): 1.4 | SILAC ratio Acsl4 ([4]; competitor 50 μM): 1.6 | SILAC ratio Acsl4 ([4]; competitor 100 μM): 1.7 | SILAC ratio Letm1 ([5]; competitor 10 μM): 1.3 | SILAC ratio Letm1 ([5]; competitor 25 μM): 1.5 | SILAC ratio Letm1 ([5]; competitor 50 μM): 1.2 | SILAC ratio Letm1 ([5]; competitor 100 μM): 1.1 | SILAC ratio, Aldh1b1 ([6]; competitor 10 μM): 1.2 | SILAC ratio, Aldh1b1 ([6]; competitor 25 μM): 1.6 | SILAC ratio, Aldh1b1 ([6]; competitor 50 μM): 2.0 | SILAC ratio, Aldh1b1 ([6]; competitor 100 μM): 2.6 | SILAC ratio, Plin2 ([7]; competitor 10 μM): 1.8 | SILAC ratio, Plin2 ([7]; competitor 25 μM): 3.2 | SILAC ratio, Plin2 ([7]; competitor 50 μM): 20.0 | SILAC ratio, Plin2 ([7]; competitor 100 μM): 20.0 | SILAC ratio, Calu ([8]; competitor 10 μM): 1.1 | SILAC ratio, Calu ([8]; competitor 25 μM): 1.5 | SILAC ratio, Calu ([8]; competitor 100 μM): 1.8 | SILAC ratio, Adpgk ([9]; competitor 10 μM): 1.4 | SILAC ratio, Adpgk ([9]; competitor 25 μM): 1.7 | SILAC ratio, Adpgk ([9]; competitor 50 μM): 1.5 | SILAC ratio, Adpgk ([9]; competitor 100 μM): 2.0 | SILAC ratio, Tmed7 ([10]; competitor 10 μM): 1.0 | SILAC ratio, Tmed7 ([10]; competitor 25 μM): 1.5 | SILAC ratio, Tmed7 ([10]; competitor 100 μM): 2.1
